Experimental data as given in US6525001B1, “Substituted pyrimidine and pyridine herbicides” (Mid-American Commercialization Corporation, priority 1997, dated 2003).

Key:
Format in all cases: in vivo
Parameters in all cases: key: 0 is no effect; 10 is complete control
[1] = tested on: bedstraw (Galium aparine); assay: Test B pre-/postemergence; conditions: for Bedstraw plant response rating: Preemergence
Outline: (§1)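 Seeds were planted and sprayed preemergence, while plants at 2 to 18 cm (1- to 4-leaf stage) were sprayed postemergence at the same time, with test chemical in a non-phytotoxic solvent mixture containing surfactant. After twelve to sixteen days in a greenhouse, injury was rated visually against untreated controls on a 0–10 scale.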

[2] = tested on: blackgrass (Alopecurus myosuroides); assay: Test B pre-/postemergence; conditions: for Blackgrass plant response rating: Preemergence
Outline: as §1

[3] = tested on: broadleaf signalgrass (Brachiaria decumbens); assay: Test B pre-/postemergence; conditions: for B. signalgrass plant response rating: Preemergence
Outline: as §1

[4] = tested on: cocklebur (Xanthium strumarium); assay: Test B pre-/postemergence; conditions: for Plant response rating, Cocklebur: Postemergence; for Cocklebur plant response rating: Preemergence
Outline: as §1

corn (Zea mays) = assay: Test B pre-/postemergence; conditions: for Corn plant response rating: Preemergence
Outline: as §1

[5] = tested on: crabgrass (Digitaria sanguinalis); assay: Test B pre-/postemergence; conditions: for Crabgrass plant response rating: Preemergence
Outline: as §1

[6] = tested on: giant foxtail (Setaria faberii); assay: Test B pre-/postemergence
Outline: as §1

[7] = tested on: momingglory (Ipomoea hederacea); assay: Test B pre-/postemergence
Outline: as §1

[8] = tested on: pigweed (Amaranthus retroflexus); assay: Test B pre-/postemergence
Outline: as §1

[9] = tested on: purple nutsedge (Cyperus rotundus); assay: Test B pre-/postemergence
Outline: as §1

rape (Brassica napus) = assay: Test B pre-/postemergence
Outline: as §1

soybean (Glycine max) = assay: Test B pre-/postemergence
Outline: as §1

[10] = tested on: sugar beet (Beta vulgaris); assay: Test B pre-/postemergence
Outline: as §1

[11] = tested on: velvetleaf (Abutilon theophrasti); assay: Test B pre-/postemergence
Outline: as §1

[12] = tested on: wheat (Triticum aestivum); assay: Test B pre-/postemergence
Outline: as §1

wild oat (Avena fatua) = assay: Test B pre-/postemergence
Outline: as §1

[13] = tested on: bamyardgrass (Echinochloa crus-galli); assay: Test B flood test
Outline: (§2)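 Plants were grown to the 2-leaf stage before treatment with test chemical, then held in a greenhouse for twelve to sixteen days. Injury was visually rated against untreated controls on a 0–10 scale, where 0 is no effect and 10 is complete control.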

[14] = tested on: duck salad (Heteranthera limosa); assay: Test B flood test
Outline: as §2

rice (Oryza sativa) = assay: Test B flood test
Outline: as §2

[15] = tested on: smallflower flatsedge (Cyperus difformis); assay: Test B flood test
Outline: as §2

[16] = Rate 250 g/ha, Postemergence (so in the source)
[17] = Rate 62 g/ha, Postemergence (flood test)
[18] = Rate 125 g/ha, Postemergence, flood test
[19] = Rate 250 g/ha, Postemergence (flood test species)
[20] = Rate 125 g/ha, Postemergence section (flood test species)

SMILES: Cc1cnc(-c2ccc(Cl)c(Cl)c2)nc1Cc1cccc(C#N)c1 [Compound 38]
- Plant response rating, Bedstraw ([1]; Rate 62 g/ha, Postemergence): 7
- Bedstraw plant response rating ([1]; Rate 62 g/ha): 0
- Plant response rating, Bedstraw ([1]; Rate 125 g/ha, Postemergence): 7
- Bedstraw plant response rating ([1]; Rate 125 g/ha): 1
- Plant response rating, Bedstraw [1, 16]: 2
- Plant response rating, Blackgrass ([2]; Rate 62 g/ha, Postemergence): 0
- Blackgrass plant response rating ([2]; Rate 62 g/ha): 0
- Plant response rating, Blackgrass ([2]; Rate 125 g/ha, Postemergence): 0
- Blackgrass plant response rating ([2]; Rate 125 g/ha): 0
- Plant response rating, Blackgrass ([2]; Rate 250 g/ha, Postemergence): 0
- Plant response rating, Blackgrass [2, 16]: 0
- Plant response rating, B. signalgrass ([3]; Rate 62 g/ha, Postemergence): 1
- B. signalgrass plant response rating ([3]; Rate 62 g/ha): 0
- Plant response rating, B. signalgrass ([3]; Rate 125 g/ha, Postemergence): 1
- B. signalgrass plant response rating ([3]; Rate 125 g/ha): 0
- Plant response rating, B. signalgrass ([3]; Rate 250 g/ha, Postemergence): 1
- Plant response rating, B. signalgrass ([3]; Rate 250 g/ha, Postemergence as printed in head r139 (second section for compounds 26-50)): 1
- Plant response rating, Cocklebur ([4]; Rate 62 g/ha): 4
- Cocklebur plant response rating ([4]; Rate 62 g/ha): 0
- Plant response rating, Cocklebur ([4]; Rate 125 g/ha): 7
- Cocklebur plant response rating ([4]; Rate 125 g/ha): 0
- Plant response rating, Cocklebur ([4]; Rate 250 g/ha): 8
- Plant response rating, Corn (corn (Zea mays); Rate 62 g/ha, Postemergence): 1
- Corn plant response rating (corn (Zea mays); Rate 62 g/ha): 0
- Plant response rating, Corn (corn (Zea mays); Rate 125 g/ha, Postemergence): 1
- Corn plant response rating (corn (Zea mays); Rate 125 g/ha): 0
- Plant response rating, Corn (corn (Zea mays); Rate 250 g/ha, Postemergence): 1
- Plant response rating, Corn (corn (Zea mays); [16]): 0
- Plant response rating, Crabgrass ([5]; Rate 62 g/ha, Postemergence): 0
- Crabgrass plant response rating ([5]; Rate 62 g/ha): 0
- Plant response rating, Crabgrass ([5]; Rate 125 g/ha, Postemergence): 0
- Crabgrass plant response rating ([5]; Rate 125 g/ha): 0
- Plant response rating, Crabgrass ([5]; Rate 250 g/ha, Postemergence): 1
- Plant response rating, Crabgrass [5, 16]: 0
- Plant response rating, Giant foxtail ([6]; Rate 62 g/ha, Postemergence): 0
- Giant foxtail plant response rating ([6]; Rate 62 g/ha, Preemergence): 0
- Giant foxtail plant response rating ([6]; Rate 125 g/ha, Postemergence): 1
- Giant foxtail plant response rating ([6]; Rate 125 g/ha, Preemergence): 1
- Plant response rating, Giant foxtail ([6]; Rate 250 g/ha, Postemergence): 0
- Plant response rating, Giant foxtail [6, 16]: 1
- Plant response rating, Morningglory ([7]; Rate 62 g/ha, Postemergence): 1
- Morningglory plant response rating ([7]; Rate 62 g/ha, Preemergence): 0
- Morningglory plant response rating ([7]; Rate 125 g/ha, Postemergence): 1
- Morningglory plant response rating ([7]; Rate 125 g/ha, Preemergence): 0
- Plant response rating, Morningglory ([7]; Rate 250 g/ha, Postemergence): 1
- Plant response rating, Morningglory [7, 16]: 0
- Plant response rating, Redroot pigweed ([8]; Rate 62 g/ha, Postemergence): 2
- Redroot pigweed plant response rating ([8]; Rate 62 g/ha, Preemergence): 0
- Redroot pigweed plant response rating ([8]; Rate 125 g/ha, Postemergence): 4
- Redroot pigweed plant response rating ([8]; Rate 125 g/ha, Preemergence): 0
- Plant response rating, Redroot pigweed ([8]; Rate 250 g/ha, Postemergence): 5
- Plant response rating, Redroot pigweed [8, 16]: 0
- Plant response rating, Nutsedge ([9]; Rate 62 g/ha, Postemergence): 0
- Nutsedge plant response rating ([9]; Rate 62 g/ha, Preemergence): 0
- Nutsedge plant response rating ([9]; Rate 125 g/ha, Postemergence): 0
- Nutsedge plant response rating ([9]; Rate 125 g/ha, Preemergence): 0
- Plant response rating, Nutsedge ([9]; Rate 250 g/ha, Postemergence): 0
- Plant response rating, Nutsedge [9, 16]: 0
- Plant response rating, Rape (rape (Brassica napus); Rate 62 g/ha, Postemergence): 3
- Rape plant response rating (rape (Brassica napus); Rate 62 g/ha, Preemergence): 0
- Rape plant response rating (rape (Brassica napus); Rate 125 g/ha, Postemergence): 3
- Rape plant response rating (rape (Brassica napus); Rate 125 g/ha, Preemergence): 0
- Plant response rating, Rape (rape (Brassica napus); Rate 250 g/ha, Postemergence): 6
- Plant response rating, Rape (rape (Brassica napus); [16]): 0
- Plant response rating, Soybean (soybean (Glycine max); Rate 62 g/ha, Postemergence): 1
- Soybean plant response rating (soybean (Glycine max); Rate 62 g/ha, Preemergence): 0
- Soybean plant response rating (soybean (Glycine max); Rate 125 g/ha, Postemergence): 1
- Plant response rating, Soybean (soybean (Glycine max); Rate 125 g/ha, Preemergence): 0
- Plant response rating, Soybean (soybean (Glycine max); Rate 250 g/ha, Postemergence): 1
- Plant response rating, Soybean (soybean (Glycine max); [16]): 0
- Plant response rating, Sugarbeets ([10]; Rate 62 g/ha, Postemergence): 9
- Sugarbeets plant response rating ([10]; Rate 62 g/ha, Preemergence): 0
- Sugarbeets plant response rating ([10]; Rate 125 g/ha, Postemergence): 9
- Plant response rating, Sugarbeets ([10]; Rate 125 g/ha, Preemergence): 0
- Plant response rating, Sugarbeets ([10]; Rate 250 g/ha, Postemergence): 9
- Plant response rating, Sugarbeets [10, 16]: 0
- Plant response rating, Velvetleaf ([11]; Rate 62 g/ha, Postemergence): 1
- Velvetleaf plant response rating ([11]; Rate 62 g/ha, Preemergence): 0
- Velvetleaf plant response rating ([11]; Rate 125 g/ha, Postemergence): 1
- Plant response rating, Velvetleaf ([11]; Rate 125 g/ha, Preemergence): 0
- Plant response rating, Velvetleaf ([11]; Rate 250 g/ha, Postemergence): 2
- Plant response rating, Velvetleaf [11, 16]: 0
- Wheat plant response rating ([12]; Rate 62 g/ha, Postemergence): 1
- Wheat plant response rating ([12]; Rate 62 g/ha, Preemergence): 0
- Wheat plant response rating ([12]; Rate 125 g/ha, Postemergence): 1
- Plant response rating, Wheat ([12]; Rate 125 g/ha, Preemergence): 0
- Plant response rating, Wheat ([12]; Rate 250 g/ha, Postemergence): 1
- Plant response rating, Wheat [12, 16]: 0
- Wild oats plant response rating (wild oat (Avena fatua); Rate 62 g/ha, Postemergence): 1
- Wild oats plant response rating (wild oat (Avena fatua); Rate 62 g/ha, Preemergence): 0
- Wild oats plant response rating (wild oat (Avena fatua); Rate 125 g/ha, Postemergence): 1
- Plant response rating, Wild oats (wild oat (Avena fatua); Rate 125 g/ha, Preemergence): 0
- Plant response rating, Wild oats (wild oat (Avena fatua); Rate 250 g/ha, Postemergence): 1
- Plant response rating, Wild oats (wild oat (Avena fatua); [16]): 0
- Plant response rating, Barnyardgrass [13, 17]: 0
- Plant response rating, Barnyardgrass [13, 18]: 0
- Plant response rating, Barnyardgrass [13, 19]: 0
- Plant response rating, Ducksalad [14, 17]: 0
- Plant response rating, Ducksalad [14, 18]: 0
- Plant response rating, Ducksalad [14, 19]: 0
- Plant response rating, Rice (rice (Oryza sativa); [17]): 0
- Rice plant response rating (rice (Oryza sativa); [20]): 0
- Plant response rating, Rice (rice (Oryza sativa); [19]): 0
- Plant response rating, S. Flatsedge [15, 17]: 0
- S. Flatsedge plant response rating [15, 20]: 3
- Plant response rating, S. Flatsedge [15, 19]: 4
